Laboratory results: patent US20260232671A1, “PHARMACEUTICAL COMPOSITION FOR LOCAL ADMINISTRATION, PREPARATION METHOD THEREFOR, AND USE THEREOF” (priority 2023, published 2026)

Columns and labels:
[1] = Preparation of solutions: clear or turbid phenomenon in solvent mixtures; assay type: physicochemical
[2] = system: freshly excised skin samples from Bama miniature pigs; test: IVPT, Franz diffusion cells, Example 12; assay type: in vitro ADME; conditions: penetration enhancer 7% in 1% solution, compared with the solution in the blank group
Protocol: The penetrability of the API in the topical formulations was studied using freshly excised skin samples from Bama miniature pigs mounted in Franz diffusion cells. The fresh skin of Bama miniature pigs was depilated and then stored at −20° C. for later use. On the morning of the experiment, the skin was taken out and thawed, and after the transepidermal water loss value of the skin was detected to be less than 30, the skin was ready for use. The skin was cut to a size suitable for placing the pig skin samples between the donor and receiver compartments, and the pig skin samples were placed between the donor and receiver compartments of the Franz diffusion cell. About 60 mg of the sample was evenly applied to the pig skin. The opening of the Franz cell was 3.14 cm^2. 8.0 mL of a receiver solution was used. At 0.5 h, 2 h, […], and 24 h, 1.0 mL of the sample was removed and replaced with a new receiver solution. At 24 h, the skin was collected. The pig skin was treated, the epidermal and dermis layers were separated and extracted with a skin extract solution, and the residual drug amount, drug concentrations in the epidermal and dermis layers, and drug penetration concentration were detected by HPLC.

Row | state of the solutions ([1]; concentration of the active ingredient 1%, dimethyl sulfoxide replaced with ethanol, propylene glycol, polyethylene glycol 400, or dimethylformamide) | Phenomenon ([1]; mass %: active ingredient 1, diethylene glycol monoethyl ether 40, dimethylformamide 45, propylene glycol 14) | Phenomenon ([1]; mass %: active ingredient 1, diethylene glycol monoethyl ether 40, ethanol 50, propylene glycol 9) | Phenomenon ([1]; mass %: active ingredient 1, diethylene glycol monoethyl ether 40, polyethylene glycol 400 59) | Phenomenon ([1]; mass %: active ingredient 1, diethylene glycol monoethyl ether 40, propylene glycol 59) | Phenomenon ([1]; mass %: active ingredient 1, dimethyl sulfoxide 10, diethylene glycol monoethyl ether 40, polyethylene glycol 400 49) | Phenomenon ([1]; mass %: active ingredient 1, dimethyl sulfoxide 35, diethylene glycol monoethyl ether 10, glycerol 20, propylene glycol 34) | Phenomenon ([1]; mass %: active ingredient 1, dimethyl sulfoxide 35, diethylene glycol monoethyl ether 30, glycerol 20, propylene glycol 14) | Phenomenon ([1]; mass %: active ingredient 1, dimethyl sulfoxide 40, diethylene glycol monoethyl ether 15, glycerol 20, propylene glycol 14, water 10) | Phenomenon ([1]; mass %: active ingredient 1, dimethyl sulfoxide 40, diethylene glycol monoethyl ether 15, propylene glycol 14, water 30) | Phenomenon ([1]; mass %: active ingredient 1, dimethyl sulfoxide 40, diethylene glycol monoethyl ether 35, propylene glycol 14, water 10) | Phenomenon ([1]; mass %: active ingredient 1, dimethyl sulfoxide 40, diethylene glycol monoethyl ether 40, glycerol 5, propylene glycol 14) | Phenomenon ([1]; mass %: active ingredient 1, dimethylformamide 45, propylene glycol 54) | Phenomenon ([1]; mass %: active ingredient 1, ethanol 45, propylene glycol 54) | Phenomenon ([1]; mass %: active ingredient 1.5, dimethyl sulfoxide 45, diethylene glycol monoethyl ether 40, propylene glycol 13.5) | Phenomenon ([1]; mass %: active ingredient 2, dimethyl sulfoxide 45, diethylene glycol monoethyl ether 40, propylene glycol 12) | Compound | preparation of a clear solution ([1]; concentration of dimethyl sulfoxide maintained at a high level, addition of a trace amount of water) | skin penetration-enhancing effect [2]
1 | suspensions | Turbid | Turbid | Turbid | Turbid | Turbid | Clear | Clear | Turbid | Turbid | Turbid | Clear | Turbid | Turbid | Clear | Clear | COc1nsc(NC(=O)N2C[C@H]3CC(N(C)c4ncnc5[nH]ccc45)C[C@H]3C2)n1 (stereo partly drawn) [Active ingredient in free base form, (3aR,5s,6aS)—N-(3-methoxy-1,2,4-thiadiazol-5-yl)-5-(methyl(7H-pyrrolo[2,3-d]pyrimidin-4-yl)amino)hexahydrocyclopenta[c]pyrrole-2(1H)-carboxamide] | failed to prepare a clear solution above 1% concentration | 
2 |  |  |  |  |  |  |  |  |  |  |  |  |  |  |  |  | CC(O)C(=O)O (stereo not shown) [lactic acid] |  | relatively good skin penetration-enhancing effect
3 |  |  |  |  |  |  |  |  |  |  |  |  |  |  |  |  | propylene glycol monocaprylate |  | certain skin penetration-enhancing effect
